{
  "source": "patent US12728181B2",
  "about": "“Solution blow spun polymer constructs, compositions and methods of fabrications and uses relating thereto” (University of Maryland, College Park, priority 2019, dated 2026)",
  "key": {"fibroblasts": {"test_system": "fibroblasts", "conditions": "cited from earlier work"}, "[1]": {"test_system": "small model bacterial inoculation", "conditions": "cited from earlier work"}, "keratinocytes": {"test_system": "keratinocytes", "conditions": "cited from earlier work"}, "mouse": {"test_system": "mouse", "conditions": "in vivo, ip", "text": "To determine the potential immune response to the fast-degrading components of the PSTA, we employed an intraperitoneal space implantation mouse model used to evaluate fibrosis (Doloff, J. C. et al. (2017) Colony Stimulating Factor-1 Receptor Is a Central Component of the Foreign Body Response to Biomaterial Implants in Rodents and Non-Human Primates, Nat. Mater. 16(6):671)."}},
  "data": [
    {"compound": "[Ag+]", "note": "[Ag^+]", "values": [
      {"measurement": "24 hour cytotoxic limit (FCC)", "setting": "fibroblasts", "result": "approximately 50 μM"},
      {"measurement": "minimum inhibitory concentration (MIC)", "setting": "[1]; inoculation of the same size", "result": "about 5 μM"},
      {"measurement": "minimum bactericidal concentration (MBC)", "setting": "[1]; small model bacterial inoculation", "result": "approximately 20 μM"},
      {"measurement": "24 hour cytotoxic limit (KCC)", "setting": "keratinocytes", "result": 500, "unit": "µM"}
    ]},
    {"compound": "poly(lactide-co-caprolactone) [LMW PLCL]", "values": [
      {"measurement": "fibrotic adhesions to the fat pads", "setting": "mouse", "result": "no adhesions to the fat pad"}
    ]}
  ]
}
